Patent US11759533B2, “Methods and compositions for modulating gene expression” (Wisconsin Alumni Research Foundation, priority 2017, dated 2023)

Assays:
frataxin (FXN) mRNA = assay: FXN mRNA by RT-PCR (relative to TBP) in FRDA patient cell line GM15850; type: cell-based, human; details: GM15850, 1 μM, 24 hours
Experimental: Cells were maintained in RPMI 1640 supplemented with 2 mM L-glutamine and 15% fetal bovine serum (FBS) at 37° C. in a humidified atmosphere of 5% CO2. Cell density was maintained between 200,000 cells/mL and 1,000,000 cells/mL. Cell growth and morphology were monitored by phase contrast microscopy and cell viability by trypan blue exclusion. To maintain cell density, cells were passaged by centrifuging at 500 g for 3 minutes and resuspending the cells in fresh media. To avoid cross-contamination, cells were handled separately with separate bottles of media. Relevant data were obtained from cell lines passaged between P9 and P12.
To prepare agents for treatment of cells, each agent or agent mixture tested was dissolved in DMSO. […] 500,000 cells ells were seeded at 500,000 cells/mL and treated 24 h with agents in DMSO (0.1-0.2% DMSO final concentration). For the 24 hour treatment, cell media was changed immediately before treatment with agent and agent was added at the zero time point. The media was not changed during the 24 hour treatment time period.
After treatment with the agents or agent mixtures, cells were harvested and total RNA was purified with the RNeasy Mini Kit (Qiagen, Valencia, Calif.), including on-column DNase I treatment (ZYMO Research, Catalog number E1010), according to manufacturer's directions. […]

FXN protein [1] = assay: Immunoblot for FXN protein in GM15851 cells; type: cell-based, human; details: GM15851, 24 hours, 1 μM (Agent 4: 0.1, 0.5 or 1 μM)
Experimental: (§1) In FIG. 3A, “50” refers to GM15850 cells and in FIG. 3B, “51” refers to GM15851 cells. Cells were treated as in Example 4.
(§2) Total cell extracts from cell lines were used for immunoblot analysis. Antibodies to frataxin (abcam ab110328, 1:250 dilution) or alpha-Tubulin (Cell Signaling Technologies 2144, 1:1000 dilution) were used. Signal was detected by chemiluminescence with HRP-conjugated secondary antibodies (Bio-Rad 172-1011, 1:2000 for anti-mouse frataxin and GE NA934V, 1:2000 for anti-rabbit alpha-Tubulin).

FXN-GAA-Luc = assay: Luciferase reporter assay, FXN-GAA-Luc line (~310 GAA repeats); type: cell-based; details: 24 hours, 2 μM unless otherwise indicated (Agent 4 at 1 or 2)
Experimental: This reporter, which includes a ˜310 GAA repeat, recapitulates both the transcriptional repression and the heterochromatin formation at the endogenous FXN locus that are hallmarks of the FRDA disease.
Cells containing FXN-Luc or FXN-GAA-Luc were seeded onto 24-well plates at a confluency of 20%. The next day, media was refreshed and cells were treated 24 hours with the indicated compound at the indicated concentration. Next, cell lysates were harvested and analyzed with the Luciferase Assay System (Promega, Madison, Wis.) per manufacturer's directions on a Synergy H4 Hybrid Reader (BioTek, Winooski, Vt.).

FXN protein [2] = assay: Immunoblot for FXN protein in GM15850 cells; type: cell-based, human; details: GM15850, 24 hours, 1 μM (Agent 4: 0.1, 0.5 or 1 μM)
Experimental: as §1, §2

Compound	increase in FXN mRNA levels (frataxin (FXN) mRNA)	FXN protein (immunoblot) (FXN protein [1])	luciferase activity (FXN-GAA-Luc)	FXN protein (immunoblot) (FXN protein [2])
Cc1sc2c(c1C)C(c1ccc(Cl)cc1)=N[C@@H](CC(=O)NCCOCCOCCOCCOCCOCCOCCC(=O)NCCCN(C)CCCNC(=O)CCNC(=O)c1cc(NC(=O)c3cc(NC(=O)c4nc(NC(=O)c5cc(NC(=O)CCCNC(=O)c6nc(NC(=O)c7cc(NC(=O)c8cc(NC(=O)c9sccc9Cl)cn8C)cn7C)cn6C)cn5C)cn4C)cn3C)cn1C)c1nnc(C)n1-2 [Control Conjugate 2]	no increase	increase in FXN protein		
Cc1sc2c(c1C)C(c1ccc(Cl)cc1)=N[C@@H](CC(=O)OC(C)(C)C)c1nnc(C)n1-2 [JQ1]	no increase		Significant activation was not observed	Neither polyamide alone (3), nor JQ1, nor the unconjugated treatment induced increased production of FXN protein
